Inconclusive results and toxic doses are left out. Rule as the data show it: active = T/C of 150% or more; inactive = T/C below 125%.
Test system: L1210 leukemia ip in BDF1 mice, survival T/C
Assay: NCI In Vivo Anticancer Drug Screen. Data for tumor model L1210 Leukemia (intraperitoneal) in B6D2F1 (BDF1) mice
Conditions: endpoint: mean survival time, higher = longer survival
Procedure, shortened: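 Tumor was transplanted into mice, which were then dosed with test compound or vehicle alone. Survival was recorded for each group, and the treated figure was expressed relative to the control figure.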

[1] = dose: 100.0 mg/kg/injection, schedule: Q01DX009 (ip), vehicle: saline with Tween-80
[2] = dose: 100.0 mg/kg/injection, schedule: Q04DX003 (ip), vehicle: saline with Tween-80
[3] = dose: 200.0 mg/kg/injection, schedule: Q01DX009 (ip), vehicle: saline with Tween-80
[4] = dose: 200.0 mg/kg/injection, schedule: Q04DX003 (ip), vehicle: saline with Tween-80
[5] = dose: 400.0 mg/kg/injection, schedule: Q04DX003 (ip), vehicle: saline with Tween-80

Measured: T/C

COc1cc(OC)c(OC)cc1/C=N/Nc1ccc(C(=O)O)cc1
inactive: [1] 95 % of control | [2] 96 % of control | [3] 97 % of control | [4] 94 % of control | dose: 400.0 mg/kg/injection, schedule: Q01DX009 (ip), vehicle: saline with Tween-80 101 % of control | [5] 98 % of control

c1ccc([Si]2(c3ccccc3)[Si](c3ccccc3)(c3ccccc3)[Si](c3ccccc3)(c3ccccc3)[Si](c3ccccc3)(c3ccccc3)[Si](c3ccccc3)(c3ccccc3)[Si]2(c2ccccc2)c2ccccc2)cc1
inactive: [2] 102 % of control | dose: 160.0 mg/kg/injection, schedule: Q04DX002 (ip), vehicle: saline with Tween-80 86 % of control | [4] 94 % of control | dose: 400.0 mg/kg/injection, schedule: Q04DX002 (ip), vehicle: saline with Tween-80 86 % of control | [5] 96 % of control

C1=C2CC3(CCC2C(OCc2ccccc2)CC1)OCCO3 (configuration not stated)
inactive: dose: 50.0 mg/kg/injection, schedule: Q01DX009 (ip), vehicle: saline with Tween-80 100 % of control | [1] 92 % of control | [3] 94 % of control

C/C=C(\C)C(=Nc1ccc(Cl)c(Cl)c1)N(C)C
inactive: dose: 222.0 mg/kg/injection, schedule: Q01DX Z (ip), vehicle: saline 102 % of control | dose: 333.0 mg/kg/injection, schedule: Q01DX Z (ip), vehicle: saline 100 % of control | dose: 500.0 mg/kg/injection, schedule: Q01DX Z (ip), vehicle: saline 118 % of control

O=c1cc[n]2c(n1)[O][Hg]2
inactive: dose: 5.0 mg/kg/injection, schedule: Q01DX001 (ip), vehicle: carboxymethylcellulose (CMC) 98 % of control | dose: 10.0 mg/kg/injection, schedule: Q01DX001 (ip), vehicle: carboxymethylcellulose (CMC) 98 % of control

CC(C)NC(=O)Oc1ccccc1
inactive: dose: 100.0 mg/kg/injection, schedule: Q04DX002 (ip), vehicle: Klucel (hydroxypropylcellulose) (HPC) 93 % of control | dose: 200.0 mg/kg/injection, schedule: Q04DX002 (ip), vehicle: Klucel (hydroxypropylcellulose) (HPC) 110 % of control | dose: 400.0 mg/kg/injection, schedule: Q04DX002 (ip), vehicle: Klucel (hydroxypropylcellulose) (HPC) 96 % of control
